The target of one test is T1, MutSβ (Homo sapiens, UniProt P20585+P43246).
T1 construct: purchased AMRI
Put plainly: MutSβ ADP Glo Assay. The note with it: 20nM MutSβ, 30nM CAG DNA, 25 µM ATP, 2 hours at room temperature. Format: biochemical. The procedure:
Biological Example A - MutSβ Assay
• MutSβ (supplied by AMRI) stored at -70°C • ADP Glo Kinase Assay Kit (Promega: V9102) stored at -20°C • ATP (supplied within the ADP Glo Kit) stored at -20°C • 1M KCI (Sigma Aldrich: P9333) stored at 2-8°C • 1 M HEPES pH 7.5 (Gibco: M15630-080) stored at 2-8°C • 1M MgCl2 (Sigma Aldrich: M1028-100mL) stored at 2-8°C • Tween-20 (Sigma Aldrich: P1379) (10% solution) stored at 2-8°C • 500mM DTT (Sigma Aldrich: 10197777001) stored at -20°C • CAG loop DNA for MutSβ (made in house) stored at -20°C • MilliQ water stored at room temperature
• 1. Prepare the buffer fresh each day • 2. Take the enzyme from the freezer, thaw in room temperature water and centrifuge at 13,000 rpm for 10 minutes at 2-8C, then make up enzyme and ATP stocks • 3. Quality Control the multidrop head to a %CV of <2% • 4. Add 3µL of 33.34nM MutSβ and 50.01nM CAG looped DNA solution […] to each well in columns 1 and 3-23 of the plate • 5. Pre-incubate the MutSβ and buffer mix for 10 minutes with the compounds • 6. Wash the multidrop head through with MilliQ water (for at least 30 seconds) • 7. Add 3µL of MutSβ Assay buffer (without enzyme) to columns 2 and 24 for the vehicle controls • 8. Wash the multidrop head through with MilliQ water (for at least 30 seconds) • 9. Add 2µL of 62.5µM ATP to each well of the whole plate, then wash with MilliQ water (for a minimum of 30 seconds) • 10. Centrifuge plate for 1 minute at 1000 rpm • 11. Incubate for 2 hours at room temperature • 12. Add 5µL of ADP Glo reagent to each well of the whole plate and wash the multidrop head with MilliQ water (for a minimum of 30 seconds) • 13. Incubate for 40 minutes at room temperature (minimum requirement) • 14. Add 10µL of Kinase Detection Reagent to each well of the whole plate • 15. Wash the multidrop head with MilliQ water more than 1 minute and then dry • 16. Remove the head and put the cover back on for overnight storage • 17. Incubate for 30 minutes at room temperature (minimum requirement) • 18. Read on a microplate reader
A general note: ADP-Glo turns the ADP formed in a reaction into a luminescent signal.

A further test concerns U20S-IC6 cells. Put plainly: Lo-Q platform assay (CAG repeat expansion in a clonal cell line with tetracycline-regulated exon 1 HTT ~100 CAG / nanoluc). The test is classed as cell-based. The note with it: 336 h, 2-week assay with tetracycline pulsing, read-out: Minimum effective concentration (MEC). From the text:
The cell line that was used in the assay below was generated as follows:
The pcDNA™4/TO vector contains two tetracycline operator 2 (TetO2) sites within the human cytomegalovirus immediate-early (CMV) promoter for tetracycline regulated expression of your gene of interest (Yao et al., 1998). The TetO2 sequences serve as binding sites for four Tet repressor molecules (comprising two Tet repressor homodimers) and confer tetracycline-responsiveness to the gene of interest. In the absence of tetracycline, expression of your gene of interest is repressed by the binding of Tet repressor homodimers to the TetO2 sequences. Addition of tetracycline to the cells de-represses the hybrid CMV/TetO2 promoter in pcDNA™4/TO and allows expression of your gene of interest. The pcDNA™6/TR regulatory plasmid is designed for use with the T-REx™ System for tetracycline-regulated expression of the gene of interest in mammalian cells. (www.lifetechnologies.com).
The expression sequence comprises exon 1 huntingtin with ~100 pure CAG repeats, a P2A self-cleaving peptide and a nanoluc sequence followed by a polyA signal. Full plasmid sequence is indicated (Seq ID NO:3). The plasmid contains sequences for ampicillin (bacterial propagation) and zeocin (mammalian cell lines) resistance.
The U-2 OS cell line (purchased from LGC standards, ATCC) is derived from a moderately differentiated sarcoma from the tibia of an adolescent person. Karyotyping has shown that although there are a lot of chromosomal abnormalities the tumour suppressor genes p53 and pRb are still fully functional in the U2OS cell line.
Routine culture of the adherent cells in non-PDL plastic ware in a humidified 37°C incubator with 5% CO2. Cells were maintained in McCoy's 5A (modified) medium with GlutaMAX supplement (Life Technologies 3660-021) and tetracycline-free FBS (Clontech 631106). Maintenance medium for the clonal cell lines expressing Tet repressor and exon 1 HTT/nanoluc constructs were additionally supplemented with zeocin to 100 ug/ml and blasticidin to 1.25 ug/ml. Cells were passaged at 70-80% confluence once or twice a week, either to a split ratio or defined seeding density using DPBS and TrypLE express enzyme (1x, no phenol red, Life technologies 12604-039) was used to dissociate the cells. Cells were frozen with Cell Banker (AMSBIO 11891) or with medium plus 10% DMSO and stored in liquid nitrogen vapour phase.
Stable, clonal cell lines (e.g. 1C6) are leveraged either identify potential druggable targets, and to assess the effectiveness of therapeutic compounds against a Huntington's disease, by way of quantifying CAG repeats expansion rates.
• Place a vial of the cell line U20S-IC6 (1-2×10^6 cells/mL), produced as described above, in a water bath at 37°C for 30 s. Once thawed, quickly transfer the cells into a 15 mL falcon tube containing 9 mL of McCoys 5A media, supplemented with 10% Tet-free FBS. • Pellet the cells by centrifugation at 300 x g for 5 m and discard the supernatant. • Resuspend the cell pellet in 10 mL fresh media and transfer to a sterile T75 culture flask. • Inspect the culture after 24 h and maintain the cells below 80% confluency, typically passaging every 3-4 days.
The Lo-Q platform has been optimised to run as a 2-week assay, following the standard processes detailed in the schematic in Figure 1A.
• Cell seeding for Lo-Q platform assays should be initiated on Mondays (am) to ensure Tetracycline pulsing can be maintained every other day. • The Friday prior to initiating any Lo-Q platform assay ensure there are sufficient cells in culture to seed the required number of assay plates. If required, passage the cells, otherwise perform a media change to McCoys 5A, 10% Tet-free FBS, 1.25 µg/mL Blasticidin®, and 100 µg/mL Zeocin®. • On the Monday morning, aspirate the media from the required number of culture flasks containing U20S-IC6 cells and wash with 2 mL PBS. • Aspirate the PBS and add 2 mL 0.25% Trypsin EDTA. […]

One may read the IC50 as the concentration that gives 50% inhibition. A high value points to lower potency.

T1 sequence (P43246 whole entry): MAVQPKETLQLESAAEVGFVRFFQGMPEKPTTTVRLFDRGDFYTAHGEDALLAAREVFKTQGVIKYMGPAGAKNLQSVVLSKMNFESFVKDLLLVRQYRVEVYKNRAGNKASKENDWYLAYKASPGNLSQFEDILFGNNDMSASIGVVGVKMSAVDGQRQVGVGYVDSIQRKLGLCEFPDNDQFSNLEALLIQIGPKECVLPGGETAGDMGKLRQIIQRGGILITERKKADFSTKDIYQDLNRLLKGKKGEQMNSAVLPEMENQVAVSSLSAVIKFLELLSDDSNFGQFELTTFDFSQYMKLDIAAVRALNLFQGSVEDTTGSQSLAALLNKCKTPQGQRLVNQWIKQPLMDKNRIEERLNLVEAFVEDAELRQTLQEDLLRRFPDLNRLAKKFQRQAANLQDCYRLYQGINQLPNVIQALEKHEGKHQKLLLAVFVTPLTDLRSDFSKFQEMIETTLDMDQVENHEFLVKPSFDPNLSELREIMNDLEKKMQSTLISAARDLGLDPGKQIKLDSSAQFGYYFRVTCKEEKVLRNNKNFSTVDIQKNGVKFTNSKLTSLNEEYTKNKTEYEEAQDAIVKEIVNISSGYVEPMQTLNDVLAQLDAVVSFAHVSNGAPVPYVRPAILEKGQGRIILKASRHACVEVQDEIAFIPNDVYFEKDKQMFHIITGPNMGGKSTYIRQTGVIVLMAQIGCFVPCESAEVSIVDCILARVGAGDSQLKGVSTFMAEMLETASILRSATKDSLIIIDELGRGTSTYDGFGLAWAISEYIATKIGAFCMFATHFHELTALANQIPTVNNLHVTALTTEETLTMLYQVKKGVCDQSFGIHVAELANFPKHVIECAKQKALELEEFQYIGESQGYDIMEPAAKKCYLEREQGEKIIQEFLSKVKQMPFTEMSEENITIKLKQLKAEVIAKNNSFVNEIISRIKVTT
T1 sequence (P20585 whole entry): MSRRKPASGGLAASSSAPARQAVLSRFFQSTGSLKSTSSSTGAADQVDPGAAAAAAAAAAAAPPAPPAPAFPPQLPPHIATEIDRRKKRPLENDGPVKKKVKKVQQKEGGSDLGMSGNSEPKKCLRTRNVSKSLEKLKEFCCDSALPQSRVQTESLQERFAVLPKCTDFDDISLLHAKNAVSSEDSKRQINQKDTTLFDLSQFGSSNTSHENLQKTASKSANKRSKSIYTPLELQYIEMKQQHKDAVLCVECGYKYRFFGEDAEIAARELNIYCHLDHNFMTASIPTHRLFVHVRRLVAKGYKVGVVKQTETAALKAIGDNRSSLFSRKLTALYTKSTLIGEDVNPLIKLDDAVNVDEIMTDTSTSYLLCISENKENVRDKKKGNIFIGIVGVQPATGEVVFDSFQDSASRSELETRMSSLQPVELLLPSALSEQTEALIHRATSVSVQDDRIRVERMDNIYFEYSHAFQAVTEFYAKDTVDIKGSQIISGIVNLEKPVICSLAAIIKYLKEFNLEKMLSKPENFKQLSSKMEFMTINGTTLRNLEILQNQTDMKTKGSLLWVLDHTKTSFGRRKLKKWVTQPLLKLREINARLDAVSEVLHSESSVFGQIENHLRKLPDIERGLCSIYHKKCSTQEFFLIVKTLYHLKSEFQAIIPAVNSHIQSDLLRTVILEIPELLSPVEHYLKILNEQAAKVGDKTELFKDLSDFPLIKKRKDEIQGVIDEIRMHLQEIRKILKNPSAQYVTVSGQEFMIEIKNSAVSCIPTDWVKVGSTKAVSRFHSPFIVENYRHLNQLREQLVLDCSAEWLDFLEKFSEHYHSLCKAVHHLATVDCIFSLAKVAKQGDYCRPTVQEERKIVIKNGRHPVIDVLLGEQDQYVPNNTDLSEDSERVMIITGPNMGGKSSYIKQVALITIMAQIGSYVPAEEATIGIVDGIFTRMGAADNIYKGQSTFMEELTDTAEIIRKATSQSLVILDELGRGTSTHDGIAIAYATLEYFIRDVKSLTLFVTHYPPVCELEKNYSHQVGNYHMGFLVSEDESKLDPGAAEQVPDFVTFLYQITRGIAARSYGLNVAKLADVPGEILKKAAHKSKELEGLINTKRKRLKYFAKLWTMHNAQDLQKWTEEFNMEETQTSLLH

Compound `CNS(=O)(=O)OCC(=O)Nc1nc(C)c(Cc2cccc(F)c2)s1` [Example 27, 2-((5-(3-fluorobenzyl)-4-methylthiazol-2-yl)amino)-2-oxoethyl methylsulfamate] registered a half-inhibitory concentration (IC50) at MutSβ of 1 to 10 µM. In addition, the minimal effective concentration with U20S-IC6 cells lay within 0.1 to 0.5 µM.

Take `CCN(C)S(=O)(=O)OCC(=O)Nc1nc(C)c(Cc2ccc(C)cc2)s1` [Example 39, 2-((4-methyl-5-(4-methylbenzyl)thiazol-2-yl)amino)-2-oxoethyl ethyl(methyl)sulfamate]: the IC50 against MutSβ is 1 to 10 µM. Besides, in the test on U20S-IC6 cells, the minimal effective concentration was 1 to 5 µM.

With `CCNS(=O)(=O)OCC(=O)Nc1nc(C)c(Cc2cccc(Cl)c2)s1` [Example 46, 2-((5-(3-chlorobenzyl)-4-methylthiazol-2-yl)amino)-2-oxoethyl ethylsulfamate], the IC50 on MutSβ is ≤ 0.5 µM. Moreover, the minimal effective concentration in the test with U20S-IC6 cells is ≤ 0.1 µM.

The values above are taken from patent EP4574817A1 (LoQus23 Therapeutics Limited, priority 2023, dated 2025).
